The values that follow are results of earlier work, collected in US20180338982A1, “Cooperative Medication Combination Systems” (priority 2017, published 2018).

The conditions of the series: in vivo.

Molecules are shown by their SMILES.

Take `CCC(C)(C)C(=O)O[C@H]1C[C@@H](C)C=C2C=C[C@H](C)[C@H](CC[C@@H]3C[C@@H](O)CC(=O)O3)[C@H]21` [Simvastatin]: the Half-life is 2 h.
